Data reported in patent US7393853B2, “Use of substituted 8-Perfluoroalkyl-6,7,8,9-tetrahydropyrimido[1,2-a] pyrimidin-4-one derivatives as therapeutic agents” (Sanofi Aventis, priority 2003, dated 2008).
Where a name gives a salt, the structure may show the parent alone.

Tested on: not given
Assay: not given
Conditions: not given

melting point	SMILES
236 to 238 °C	O=C(CN1c2nc(-c3ccncn3)cc(=O)n2CCC1C(F)(F)F)c1cccc(Br)c1 (racemic) [compound 13, 9-[2-(3-Bromophenyl)-2-oxoethyl]-2-pyrimidin-4-yl-8-(trifluoromethyl)-6,7,8,9-tetrahydro-4H-pyrimido[1,2-a]pyrimidin-4-one]
245 to 247 °C	O=C(CN1c2nc(-c3ccncn3)cc(=O)n2CCC1C(F)(F)F)c1cccc(F)c1 (racemic) [compound 14, 9-[2-(3-Fluorophenyl)-2-oxoethyl]-2-pyrimidin-4-yl-8-(trifluoromethyl)-6,7,8,9-tetrahydro-4H-pyrimido[1,2-a]pyrimidin-4-one]
239 to 241 °C	Cc1ccc(C(=O)CN2c3nc(-c4ccncn4)cc(=O)n3CCC2C(F)(F)F)cc1 (racemic) [compound 15, 9-[2-(4-Methylphenyl)-2-oxoethyl]-2-pyrimidin-4-yl-8-(trifluoromethyl)-6,7,8,9-tetrahydro-4H-pyrimido[1,2-a]pyrimidin-4-one]
253 to 255 °C	O=C(CN1c2nc(-c3ccncn3)cc(=O)n2CCC1C(F)(F)F)c1ccc(F)cc1 (racemic) [compound 16, 9-[2-(4-Fluorophenyl)-2-oxoethyl]-2-pyrimidin-4-yl-8-(trifluoromethyl)-6,7,8,9-tetrahydro-4H-pyrimido[1,2-a]pyrimidin-4-one]
201 to 203 °C	N#Cc1ccc(C(=O)CN2c3nc(-c4ccncn4)cc(=O)n3CCC2C(F)(F)F)cc1 (racemic) [compound 17, 9-[2-(4-Cyanophenyl)-2-oxoethyl]-2-pyrimidin-4-yl-8-(trifluoromethyl)-6,7,8,9-tetrahydro-4H-pyrimido[1,2-a]pyrimidin-4-one]

The remaining lines, values behind:

SMILES	melting point
O=C(CN1c2nc(-c3ccncc3)c(F)c(=O)n2CCC1C(F)(F)F)c1ccccc1 (racemic) [compound 10, 3-Fluoro-9-(2-oxo-2-phenylethyl)-2-pyridin-4-yl-8-(trifluoromethyl)-6,7,8,9-tetrahydro-4H-pyrimido[1,2-a]pyrimidin-4-one]	241 to 242 °C
O=c1cc(-c2ccncn2)nc2n1CCC(C(F)(F)F)N2Cc1ccccc1 (racemic) [compound 11, 9-(Phenylmethyl)-2-pyrimidin-4-yl-8-(trifluoromethyl)-6,7,8,9-tetrahydro-4H-pyrimido[1,2-a]pyrimidin-4-one]	177 to 179 °C
O=c1cc(-c2ccncn2)nc2n1CCC(C(F)(F)F)N2CCc1ccccc1 (racemic) [compound 12, 9-(2-Phenylethyl)-2-pyrimidin-4-yl-8-(trifluoromethyl)-6,7,8,9-tetrahydro-4H-pyrimido[1,2-a]pyrimidin-4-one]	147 to 149 °C
O=C(CN1c2nc(-c3ccncn3)cc(=O)n2CCC1C(F)(F)F)c1ccc(-c2ccccc2)cc1 (racemic) [compound 18, 9-(2-biphenyl-4-yl-2-oxoethyl)-2-pyrimidin-4-yl-8-(trifluoromethyl)-6,7,8,9-tetrahydro-4H-pyrimido[1,2-a]pyrimidin-4-one]	231 to 233 °C

Target: GSK3β (Homo sapiens, UniProt P49841)
Sequence (P49841 whole entry, species assumed): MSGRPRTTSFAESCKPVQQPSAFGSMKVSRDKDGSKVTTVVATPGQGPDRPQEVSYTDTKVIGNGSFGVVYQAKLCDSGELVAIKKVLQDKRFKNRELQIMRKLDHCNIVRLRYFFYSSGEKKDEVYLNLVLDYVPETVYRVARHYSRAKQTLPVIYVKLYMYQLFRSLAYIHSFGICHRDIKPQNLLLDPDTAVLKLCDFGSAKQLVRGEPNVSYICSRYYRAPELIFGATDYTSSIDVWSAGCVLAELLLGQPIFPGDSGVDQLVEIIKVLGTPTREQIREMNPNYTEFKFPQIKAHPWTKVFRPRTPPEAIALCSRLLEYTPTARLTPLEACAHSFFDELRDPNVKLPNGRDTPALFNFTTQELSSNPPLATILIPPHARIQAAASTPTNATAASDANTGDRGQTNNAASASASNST
Assay: Inhibitory activity against GSK3β (33P-ATP phosphorylation of prephosphorylated GS1 peptide, two protocols)
Assay type: biochemical
Conditions: protocol (first or second) not specified
Method: Inhibitory Activity of the Medicament of the Present Invention Against GSK3β
Two different protocols can be used.
In a first protocol: 7.5 μM of prephosphorylated GS1 peptide and 10 μM ATP (containing 300,000 cpm of 33P-ATP) were incubated in 25 mM Tris-HCl, pH 7.5, 0.6 mM DTT, 6 mM MgCl2, 0.6 mM EGTA, 0.05 mg/ml BSA buffer for 1 hour at room temperature in the presence of GSK3beta (total reaction volume: 100 microliters).
In a second protocol: 4.1 μM of prephosphorylated GS1 peptide and 42 μM ATP (containing 260,000 cpm 33P-ATP) were incubated in 80 mM Mes-NaOH, pH 6.5, 1 mM Mg acetate, 0.5 mM EGTA, 5 mM 2-mercaptoethanol, 0.02% Tween 20, 10% glycerol buffer for 2 hours at room temperature in the presence of GSK3beta.
Inhibitors were solubilized in DMSO (final solvent concentration in the reaction medium, 1%).
The reaction was stopped with 100 microliters of a solution made of 25 g polyphosphoric acid (85% P2O5), 126 ml 85% H3PO4, H2O to 500 ml and then diluted to 1:100 before use. An aliquot of the reaction mixture was then transferred to Whatman P81 cation exchange filters and rinsed with the solution described above. Incorporated 33P radioactivity was determined by liquid scintillation spectrometry.
The phosphorylated GS-1 peptide had the following sequence: […]

IC50	SMILES
3 nM	O=C(CN1c2nc(-c3ccncc3)cc(=O)n2CCC1C(F)(F)F)c1ccccc1 (single isomer, unassigned; (-)) [compound 6, (−)-9-(2-Oxo-2-phenyl-ethyl)-2-(4-pyridinyl)-8-(trifluoromethyl)-6,7,8,9-tetrahydro-4H-pyrimido[1,2-a]pyrimidin-4-one hydrochloride (1:1).]
